The record followed here is US20250145589A1, “PYRIDINE DERIVATIVE AND USE THEREOF” (SICHUAN HUIYU PHARMACEUTICAL CO., LTD., priority 2021, published 2025).

For test [1], the system named is MIA PaCa-2-AMGR drug-resistant cell line. As to the kind of experiment: MIA PaCa-2-AMGR drug-resistant cell proliferation inhibitory activity test. Format: cell-based. As to conditions: 72 h, MIA PaCa-2-AMGR drug-resistant cells, 3 days incubation, CellTiter-Glo. The method, then:
Test Example 7: Generation of MIA PaCa-2-AMGR drug-resistant cell line
MIA PaCa-2 cells were seeded and cultured at 50 to 70% confluence in six-well plate with DMEM (10% FBS+2.5% horse serum) medium at 37° C. with 5% CO2. AMG510 was added for induction at three starting concentrations of 1 nM, 10 nM and 50 nM, and the medium containing the same concentration of AMG510 was replaced every 3 days. Cells were passaged once they reached confluence. After every two passages at a given concentration of drug, the concentration was increased in a 3-fold increment until final concentrations of 1 μM for AMG510 was achieved.
(§1) MIA PaCa-2-AMGR cells in logarithmic growth phase were collected and seeded into a clear-bottom 96-well plate at a density of 4×10^3 cells per well in 80 μL of medium, and then incubated overnight at 37° C. with 5% CO2. The compounds were serially diluted 5-fold in DMSO to obtain 8 concentrations, and then further diluted with DMEM (10% FBS+2.5% horse serum) cell culture medium to obtain the working solutions (5×), 20 μL of each working solution was added to the cell culture supernatant in each well, and the plate was further incubated for 3 days at 37° C. with 5% CO2. The plate was then equilibrated with CellTiter-Glo® reagent at room temperature (25° C.) for 10-30 minutes. After aspirating 50 μL of the medium, 50 μL of CellTiter-Glo® reagent was added. The cells were thoroughly mixed with the CellTiter-Glo® reagent using a microplate shaker for 2 minutes, and then incubated at room temperature for 10 minutes. The 96-well plate was placed in a multi-mode microplate reader to record the luminescence values (RLU).
(§2) The inhibitory rate was calculated using the following formula: […]
Data were analyzed using GraphPad Prism for IC50 values (Note: The negative control refers to the group without inhibitor) The data were presented m Table 9
For orientation: ATP-based viability assays read luminescence as a measure of living cells.

Another test addresses PI3Kα (Homo sapiens (Human), UniProt P42336). The test can be described thus: Inhibition of PI3Kα efficacy assay (ADP-Glo kinase assay). The class given is biochemical. As to conditions: read-out: PI3Kα inhibitory activity (IC50). The essentials:
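ADP-Glo luminescent detection of ADP from PI3Kα acting on PI substrate with ATP, 60 min at RT; compounds in 8-point five-fold serial dilution from 2 mM DMSO stock. IC50 from four-parameter variable-slope fit.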
In general terms: ADP-Glo turns the ADP formed in a reaction into a luminescent signal.

The test system of test [2] is NCI-H358-AMGR drug-resistant cell line. As to the kind of experiment: NCI-H358-AMGR drug-resistant cell proliferation inhibitory activity test. The class given is cell-based. As to conditions: 72 h; NCI-H358-AMGR drug-resistant cells, 3 days incubation, CellTiter-Glo. The method, then:
Test Example 6t Generation of NCI-H358-AMGR Drug-Resistant Cell Line
NCI-H358 cells were seeded and cultured at 50 to 70% confluence in six-well plate with RPMI-640 (10% FBS) medium at 37° C. with 5%4 CO2. AMG510 was added for induction at three starting concentrations of 1 nM, 10 nM and 50 nM, and the medium containing the same concentration of AMG510 was replaced every 3 days. Cells were passaged once they reached confluence. After every, two passages at a given concentration of drug, the concentration was increased in a 3-old increment until final concentrations of 1 μM for AMG510 was achieved.
as §1, with “NCI-H358-AMGR cells” for “MIA PaCa-2-AMGR cells”, “with RPMI-640)” for “with DMEM”, “(10% FBS)” for “(10% FBS+2.5% horse serum)”, “of CellTiter-Glo®,” for “of CellTiter-Glo®”, “the CellTiter-Glo®,” for “the CellTiter-Glo®”, “The […]” for “The 96-well”
as §2
Data were analyzed using GraphPad Prism for IC50 values (Note: The negative control refers to the group without inhibitor).

Test [3] has as its system NCI-H358 cells (KRAS G12C mutant). As to the kind of experiment: NCI-H358 cell proliferation inhibition (CellTiter-Glo). The class given is cell-based. As to conditions: Homo sapiens, NCI-H358, 72 h; H358 cells (G12C mutation), 3 days, Table 6; read-out: NCI-H358 (IC50).
Test [4] deals with MIA PaCa-2 cells (KRAS G12C mutant). The test can be described thus: MIA PaCa-2 cell anti-proliferation (CellTiter-Glo). As to conditions: Homo sapiens, 72 h; MIA Paca-2 cells, 3 days, Table 7; read-out: MIA PaCa-2 (IC50). Format: cell-based. The method in brief: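 Viable-cell luminescence (CellTiter-Glo, ≥30 min at 25 °C) measured after a 3-day, 37 °C exposure to compounds at 9 points, 4-fold spaced, in DMEM containing 10% FBS plus 2.5% horse serum. IC50 derived versus no-inhibitor wells.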

The next test deals with PI3Kδ (Homo sapiens (Human), UniProt O00329). As to the kind of experiment: Inhibition of PI3Kδ efficacy assay (ADP-Glo kinase assay). The class given is biochemical. Conditions: Table 4; read-out: PI3Kδ inhibitory activity (IC50). The method in brief:
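Luminescent ADP-Glo readout of PI3Kδ: after a 60 min RT reaction with PI/ATP substrate, ATP depletion (40 min) and ADP detection (40 min) steps followed. Compounds tested as eight five-fold serial dilutions; inhibition rates fitted to log(inhibitor) vs. response, variable slope, for IC50.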

A further test addresses KRAS^G12C-SOS1 (Homo sapiens (Human), UniProt P01116, G12C). As to the kind of experiment: HTRF KRAS G12C/SOS1 binding assay. Conditions: Table 5. Here is the method:
Initially, a 2 mM stock solution of the test compound (dissolved in DMSO) was serially diluted in five-fold concentrations using DMSO to obtain eight working solutions 1 (200×). Subsequently, each of the eight working solutions 1 was further diluted in a 20-fold gradient by adding 5 μL into 95 μL of Diluent buffer, mixed completely with vortex mixer, resulting in eight working solutions 2 (10×). […] Subsequently, 5 μL of Anti-tag 1-Tb^3+ stock solution and 5 μL of Anti-tag2-XL665 were added to each well, mixed, and incubated at 4° C. for 3 hours. Remove the plate and read on an HTRF® compatible reader, with the excitation light wavelength set at 337 nm and readings recorded at 620 nm and 665 nm. The data results were presented as the ratio of the 665 nm signal value to the 620 nm signal value for each well, calculated as follows: […]. The inhibition rate was calculated using the following formula: […]
Data were analyzed using GraphPad Prism with log (inhibitor) vs. response-Variable Slope (four parameters) fitting calculations for IC50 values.
Background: In TR-FRET formats the signal depends on donor and acceptor labels being close together.

Like-named read-outs stand apart in the source and are kept apart here.

Sequence of KRAS^G12C-SOS1 (P01116-2 other isoform, or with tags, fused parts or gaps G12C): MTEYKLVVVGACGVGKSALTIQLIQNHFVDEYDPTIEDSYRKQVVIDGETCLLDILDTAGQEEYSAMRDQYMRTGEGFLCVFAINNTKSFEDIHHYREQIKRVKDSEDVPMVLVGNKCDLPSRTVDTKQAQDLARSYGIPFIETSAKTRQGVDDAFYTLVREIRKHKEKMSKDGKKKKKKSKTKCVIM
Sequence of PI3Kδ (O00329 whole entry): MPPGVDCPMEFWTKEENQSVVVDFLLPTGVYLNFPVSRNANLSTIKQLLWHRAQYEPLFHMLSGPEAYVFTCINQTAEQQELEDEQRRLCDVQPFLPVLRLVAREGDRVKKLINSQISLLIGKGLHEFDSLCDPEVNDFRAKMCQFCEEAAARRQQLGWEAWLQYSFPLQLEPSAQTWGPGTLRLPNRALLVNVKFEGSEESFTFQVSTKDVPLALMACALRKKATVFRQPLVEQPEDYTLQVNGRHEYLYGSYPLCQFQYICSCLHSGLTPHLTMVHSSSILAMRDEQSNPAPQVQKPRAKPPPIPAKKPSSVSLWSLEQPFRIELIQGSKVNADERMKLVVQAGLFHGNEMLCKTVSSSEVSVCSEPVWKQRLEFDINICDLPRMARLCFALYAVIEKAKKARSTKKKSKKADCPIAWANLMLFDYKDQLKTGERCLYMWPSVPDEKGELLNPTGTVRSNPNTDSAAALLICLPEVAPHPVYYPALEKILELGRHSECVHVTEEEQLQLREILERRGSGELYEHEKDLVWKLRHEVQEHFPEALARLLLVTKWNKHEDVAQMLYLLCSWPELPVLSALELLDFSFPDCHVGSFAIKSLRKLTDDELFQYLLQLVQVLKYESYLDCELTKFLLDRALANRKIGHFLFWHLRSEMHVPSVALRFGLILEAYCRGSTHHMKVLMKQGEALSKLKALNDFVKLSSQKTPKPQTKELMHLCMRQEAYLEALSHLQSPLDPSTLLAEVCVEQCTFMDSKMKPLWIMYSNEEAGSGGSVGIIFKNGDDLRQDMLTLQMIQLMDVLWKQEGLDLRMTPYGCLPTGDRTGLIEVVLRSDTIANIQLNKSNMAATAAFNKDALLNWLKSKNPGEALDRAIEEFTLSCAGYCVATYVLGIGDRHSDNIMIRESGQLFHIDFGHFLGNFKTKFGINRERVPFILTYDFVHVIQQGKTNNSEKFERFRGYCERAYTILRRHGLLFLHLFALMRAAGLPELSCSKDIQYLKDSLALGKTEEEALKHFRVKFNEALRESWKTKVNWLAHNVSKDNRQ
Sequence of PI3Kδ (P27986 whole entry partner): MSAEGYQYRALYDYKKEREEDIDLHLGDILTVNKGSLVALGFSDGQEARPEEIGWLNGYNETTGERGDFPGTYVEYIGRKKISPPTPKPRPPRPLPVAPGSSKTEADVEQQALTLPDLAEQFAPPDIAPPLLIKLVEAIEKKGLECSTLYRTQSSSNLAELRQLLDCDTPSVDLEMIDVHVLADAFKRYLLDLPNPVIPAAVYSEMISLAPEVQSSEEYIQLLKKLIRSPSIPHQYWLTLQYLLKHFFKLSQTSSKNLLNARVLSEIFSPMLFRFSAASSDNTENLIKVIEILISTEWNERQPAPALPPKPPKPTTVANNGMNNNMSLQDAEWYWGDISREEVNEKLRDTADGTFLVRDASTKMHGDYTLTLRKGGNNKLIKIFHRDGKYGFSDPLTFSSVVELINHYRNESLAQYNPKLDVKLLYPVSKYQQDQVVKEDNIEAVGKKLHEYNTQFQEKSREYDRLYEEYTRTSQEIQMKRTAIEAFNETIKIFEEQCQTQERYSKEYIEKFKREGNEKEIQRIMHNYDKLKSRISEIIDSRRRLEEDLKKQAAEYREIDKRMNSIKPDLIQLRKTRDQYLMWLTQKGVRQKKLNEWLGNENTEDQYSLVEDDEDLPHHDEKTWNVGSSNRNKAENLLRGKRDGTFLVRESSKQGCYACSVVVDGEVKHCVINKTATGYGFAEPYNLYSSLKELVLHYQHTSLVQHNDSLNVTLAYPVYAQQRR
Sequence of PI3Kα (P42336 whole entry): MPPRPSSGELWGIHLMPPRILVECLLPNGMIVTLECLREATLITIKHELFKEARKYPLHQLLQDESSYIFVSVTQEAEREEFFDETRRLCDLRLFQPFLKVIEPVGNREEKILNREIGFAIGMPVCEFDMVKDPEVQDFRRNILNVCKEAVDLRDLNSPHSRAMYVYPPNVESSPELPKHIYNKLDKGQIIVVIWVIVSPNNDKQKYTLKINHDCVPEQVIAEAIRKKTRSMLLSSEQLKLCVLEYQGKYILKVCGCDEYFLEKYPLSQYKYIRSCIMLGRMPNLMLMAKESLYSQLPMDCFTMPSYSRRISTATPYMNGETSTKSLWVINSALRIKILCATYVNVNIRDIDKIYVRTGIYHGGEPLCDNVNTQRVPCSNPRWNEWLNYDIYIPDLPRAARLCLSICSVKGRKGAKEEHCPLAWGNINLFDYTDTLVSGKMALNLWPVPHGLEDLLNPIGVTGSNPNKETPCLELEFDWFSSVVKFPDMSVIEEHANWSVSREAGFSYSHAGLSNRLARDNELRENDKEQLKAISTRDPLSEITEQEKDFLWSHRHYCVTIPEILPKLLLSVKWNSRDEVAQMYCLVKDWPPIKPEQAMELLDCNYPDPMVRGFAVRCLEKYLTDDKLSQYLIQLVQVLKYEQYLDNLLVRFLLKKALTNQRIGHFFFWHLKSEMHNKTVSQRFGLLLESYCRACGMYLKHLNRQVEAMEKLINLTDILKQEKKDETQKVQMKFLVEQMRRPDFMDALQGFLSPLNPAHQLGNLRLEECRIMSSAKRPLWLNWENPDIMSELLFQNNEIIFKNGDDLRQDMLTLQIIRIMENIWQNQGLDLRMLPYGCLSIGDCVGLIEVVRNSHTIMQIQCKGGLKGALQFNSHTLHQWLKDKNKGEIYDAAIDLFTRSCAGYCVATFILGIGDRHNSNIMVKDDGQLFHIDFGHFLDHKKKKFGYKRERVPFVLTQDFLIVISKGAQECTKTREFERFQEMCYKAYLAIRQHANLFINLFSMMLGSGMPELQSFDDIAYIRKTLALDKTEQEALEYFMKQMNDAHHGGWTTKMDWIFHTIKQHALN
Sequence of PI3Kα (P27986 whole entry partner): as the sequence (P27986 whole entry partner) above

What is called IC50 is the midpoint of a concentration-inhibition curve. In the case of `COc1ncc(-c2ccc3ncnc(N4CCN(C(=O)/C=C/C(C)=O)CC4)c3n2)cc1NS(=O)(=O)c1c(C)cccc1F` [Example 229, (E)-2-fluoro-N-(2-methoxy-5-(4-(4-(4-oxopent-2-enoyl)piperazin-1-yl)pyrido[3,2-d]pyrimidin-6-yl)pyridin-3-yl)-6-methyl-benzene-sulfonamide], the half-maximal inhibitory concentration (IC50) in test [1] was 31.3 nM; on PI3Kα (Table 4), 3 nM; in test [2], 30 nM; in test [3] it was 24 nM; in test [4], 40.8 nM.

`COc1ncc(-c2ccc3ncnc(C4CCN(C(=O)/C=C/C(C)=O)CC4)c3n2)cc1NS(=O)(=O)c1c(F)cccc1Cl` [Example 235, (E)-2-chloro-6-fluoro-N-(2-methoxy-5-(4-(1-(4-oxopent-2-enoyl)piperidin-4-yl)pyrido[3,2-d]pyrimidin-6-yl)pyridin-3-yl)benzenesulfonamide]: the figures for the IC50 at PI3Kα (Table 4), at PI3Kδ and at KRAS^G12C-SOS1 were 0.3 nM, 2.38 nM and 113 nM, respectively.

With `COc1ccc(S(=O)(=O)Nc2cc(-c3ccc4ncnc(N5CCN(C(=O)/C=C/C(C)=O)CC5)c4c3)cnc2OC)c(F)c1` [Example 185, (E)-2-fluoro-4-methoxy-N-(2-methoxy-5-(4-(4-(4-oxopent-2-enoyl)piperazin-1-yl)quinazolin-6-yl)pyridin-3-yl)benzene-sulfonamide], the IC50 in test [1] was determined as 45.7 nM; at PI3Kα (Table 4), 1.6 nM; in test [2] it was 131 nM; in test [3], 69.4 nM; in test [4] it was 104 nM.

With `COc1ncc(-c2ccc3ncnc(C4CCN(C(=O)/C=C/C(C)=O)C4)c3c2)cc1NS(=O)(=O)c1ccc(F)cc1F` (stereo not shown) [Example 247, (E)-2,4-difluoro-N-(2-methoxy-5-(4-(1-(4-oxopent-2-enoyl)pyrrolidin-3-yl)quinazolin-6-yl)pyridin-3-yl)benzenesulfonamide], the 50% inhibitory concentration (IC50) at PI3Kα (Table 4) turned out to be 0.53 nM; on PI3Kδ, 3.33 nM; on KRAS^G12C-SOS1 it was 277 nM.

Take `COc1ncc(-c2ccc3ncnc(N4CCN(C(=O)/C=C/C(C)=O)CC4)c3c2)cc1NS(=O)(=O)c1c(C)cccc1F` [Example 186, (E)-2-fluoro-N-(2-methoxy-5-(4-(4-(4-oxopent-2-enoyl)piperazin-1-yl)quinazolin-6-yl)pyridin-3-yl)-6-methyl-benzene-sulfonamide]: the half-inhibitory concentration (IC50) in test [1] stood at 31.3 nM; on PI3Kα (Table 4), 2.4 nM; in test [2], 43.9 nM; in test [3], 25.4 nM; in test [4] it was 52.9 nM.

As to `COc1ncc(-c2ccc3ncnc(C4=CCN(C(=O)/C=C/C(C)=O)CC4)c3n2)cc1NS(=O)(=O)c1c(F)cccc1Cl` [Example 241, (E)-2-chloro-6-fluoro-N-(2-methoxy-5-(4-(1-(4-oxopent-2-enoyl)-1,2,3,6-tetrahydropyridin-4-yl)pyrido[3,2-d]pyrimidin-6-yl)pyridin-3-yl)benzenesulfonamide], the IC50 was found to be 0.27 nM at PI3Kα (Table 4), 2.96 nM on PI3Kδ and 454 nM at KRAS^G12C-SOS1.

In the case of `COc1ncc(-c2ccc3ncnc(N4CCN(C(=O)/C=C/C(C)=O)CC4)c3c2)cc1NS(=O)(=O)c1ccc(F)c2ccccc12` [Example 187, (E)-4-fluoro-N-(2-methoxy-5-(4-(4-(4-oxopent-2-enoyl)piperazin-1-yl)quinazolin-6-yl)pyridin-3-yl)naphthalene-1-sulfonamide], the IC50 worked out at 224 nM in test [1]; 4.6 nM on PI3Kα (Table 4); 373 nM in test [2]; 140 nM in test [3]; 173 nM in test [4].

For the compound `C=CC(=O)N1CCN(c2ncnc3ccc(-c4cnc(OC)c(NS(=O)(=O)c5ccc(F)cc5F)c4)cc23)CC1` [Example 1, N-(5-(4-(4-acryloylpiperazin-1-yl)quinazolin-6-yl)-2-methoxypyridin-3-yl)-2,4-difluorobenzenesulfonamide], the IC50 in test [1] came to 36 nM; at PI3Kα (Table 1) it was 0.26 nM; in test [2], 27 nM; in test [3] it was 21 nM; in test [4], 98 nM.

In the case of `COc1ncc(-c2ccc3ncnc(C4=CCN(C(=O)/C=C/C(C)=O)CC4)c3n2)cc1NS(=O)(=O)c1c(F)cc(F)cc1F` [Example 236, (E)-2,4,6-trifluoro-N-(2-methoxy-5-(4-(1-(4-oxopent-2-enoyl)-1,2,3,6-tetrahydropyridin-4-yl)pyrido[3,2-d]pyrimidin-6-yl)pyridin-3-yl)benzenesulfonamide], the 50% inhibitory concentration (IC50) in test [1] came out at 28.8 nM; at PI3Kα (Table 4), 1.7 nM; in test [2], 44.7 nM; in test [3] it was 19.5 nM; in test [4], 34.6 nM.

Consider `COc1ncc(-c2ccc3ncnc(N4[C@H](C)CN(C(=O)/C=C/C(C)=O)C[C@@H]4C)c3c2)cc1NS(=O)(=O)c1ccccc1F` [Example 193, N-(5-(4-((2R,6S)-2,6-dimethyl-4-((E)-4-oxopent-2-enoyl)piperazin-1-yl)quinazolin-6-yl)-2-methoxypyridin-3-yl)-2-fluorobenzenesulfonamide], for which the IC50 stood at 66.2 nM in test [1]; 2.8 nM on PI3Kα (Table 4); 21.6 nM in test [2]; 52.7 nM in test [3]; 115 nM in test [4].

For `CC(=O)/C=C/C(=O)N1CCN(c2ncnc3ccc(-c4cnc(OC(F)(F)F)c(NS(=O)(=O)c5ccc(F)cc5F)c4)nc23)CC1` [Example 226, (E)-2,4-difluoro-N-(5-(4-(4-(4-oxopent-2-enoyl)piperazin-1-yl)pyrido[3,2-d]pyrimidin-6-yl)-2-(trifluoro-methoxy)pyridin-3-yl)benzene-sulfonamide], the IC50 was determined as 424 nM in test [1]; 1.4 nM at PI3Kα (Table 4); 359 nM in test [2]; 248 nM in test [3]; 357 nM in test [4].
